The source of these data is patent US8865448B2, “Aspergillus containing beta-glucosidase, beta-glucosidases and nucleic acids encoding the same” (Cleanvantage LLC, priority 2010, dated 2014).

The subject of test [1] is A. niger BKMF-1305 beta-glucosidase. Conditions: cited from earlier work.
The test system of test [2] is A. carbonarius KLU-93 beta-glucosidase. The conditions noted are these: cited from earlier work.
In test [3] the test system is A. phoenicis QM329 beta-glucosidase. Conditions: cited from earlier work.
Test [4] has as its system A. niger CCRC31494 beta-glucosidase. The conditions noted are these: hydrolysis of cellobiose, 40° C., pH 4.0; cited from earlier work.
In test [5] the test system is Aspergillus saccharolyticus (strain AP, CBS 127449) beta-glucosidases, crude enzyme extract. Put plainly: Michaelis-Menten kinetics with cellobiose, crude solid state fermentation extract of strain AP. Format: biochemical. The conditions noted are these: cellobiose as substrate, 50° C. As to the method:
The fungal strain AP/Aspergillus saccharolyticus was grown on potato dextrose agar (Sigma) for sporulation. Spores were harvested after 7 days of growth by adding sterile water to the plate and scrape on the surface of the culture. The heavy spore suspension was filtered through Myra cloth. Two ml of the spore solution was inoculated into 200 ml seed medium (2.0 g/l wheat bran, 5 g/l corn steep powder, 0.25 g/l yeast extract, 0.75 g/l peptone, 1.4 g/l (NH4)2SO4, 2.0 g/l KH2PO4, 0.4 g/l CaCl2 2H2O, 0.3 g/l MgSO4H2O, 5.0 mg/l FeSO4, 1.6 mg/l MnSO4 7H2O, 1.4 mg/l ZnSO4 7H2O, 2.0 CoCl2 6H2O) in an 500 ml Erlenmeyer flask, and incubated at 30° C. for 2 days, shaking at 160 rpm. […] The samples were incubated at 30° C. without shaking. After 7 days incubation, liquid was extracted from the medium by pressing the medium by hand using gloves. The extract was centrifuged at 10000 g, and the supernatant filtered through Whatman filter paper. In this work specific activity (U/mg) is defined as units per amount of total protein. […] Samples were assayed at different concentrations in triple determination to ensure substrate saturation in the assay. […] Triple determinations were performed. A substrate saturation curve was prepared by plotting substrate concentration [S] vs reaction rate, v. […]

The subject of test [6] is Novozym 188 beta-glucosidase (Aspergillus niger), commercial preparation. Put plainly: Michaelis-Menten kinetics with cellobiose, Novozym 188. The format is biochemical. The conditions noted are these: cellobiose as substrate, 50° C. As for the experimental part: (§1) In this work specific activity (U/mg) is defined as units per amount of total protein. […] The assay using 5 mM pNPG in NaCltrate buffer pH 4.8 was performed as previously described; enzyme samples were assayed at different concentrations in triple determination to ensure substrate saturation in the assay. […] The glucose concentration was measured at Dionex ICS3000 using gradient elution: 0-20% eluent B (0.5M NaAcetate in 100 mM NaOH) in 13 min followed by 2 min washing with 50% eluent B and 5 min re-equilibrating with 100% eluent A (100 mM NaOH). Samples were assayed at different concentrations in triple determination to ensure substrate saturation in the assay.
(§2) Triple determinations were performed. A substrate saturation curve was prepared by plotting substrate concentration [S] vs reaction rate, v. The Michealis Menten constants Km and Vmax were determined from Hanes-Wolf plots where substrate concentration [S] is plotted against substrate concentration over reaction rate [S]/v, and the linear relationship of the data gives a slope of 1/Vmax, a y-intercept of Km/Vmax, and an x-intercept of −Km.
(§3) Enzyme kinetics are preferably carried out on pure enzyme preparations, but are in this study used for the comparison of the beta-glucosidases of the crude enzyme extract of strain AP/Aspergillus saccharolyticus and the commercial enzyme preparation Novozym 188 and Cellic CTec. […]

The subject of test [7] is A. japonicus beta-glucosidase. Conditions: cellobiose; cited from earlier work.
Test [8] deals with A. niger NIAB280 beta-glucosidase. Conditions: hydrolysis of cellobiose, 50° C., pH 5.0; cited from earlier work.
Test [9] has as its system A. niger beta-glucosidases. Conditions: cellobiose; general literature search; cited from earlier work.
Test [10] concerns Cellic CTec beta-glucosidases, commercial preparation. Put plainly: Michaelis-Menten kinetics with cellobiose, Cellic CTec. Format: biochemical. Conditions: cellobiose as substrate, 50° C. As to the method:
as §1, §2, §3

Test [11] deals with T1, Aspergillus saccharolyticus CBS 127449 beta-glucosidase BGL1, his-tagged, expressed in T. reesei, SEQ ID NO: 3 (without signal peptide SEQ ID NO: 4) (Aspergillus saccharolyticus, UniProt G0X2F9).
T1 construct: mature form lacks signal peptide 1-19
T1 sequence (G0X2F9 20-860): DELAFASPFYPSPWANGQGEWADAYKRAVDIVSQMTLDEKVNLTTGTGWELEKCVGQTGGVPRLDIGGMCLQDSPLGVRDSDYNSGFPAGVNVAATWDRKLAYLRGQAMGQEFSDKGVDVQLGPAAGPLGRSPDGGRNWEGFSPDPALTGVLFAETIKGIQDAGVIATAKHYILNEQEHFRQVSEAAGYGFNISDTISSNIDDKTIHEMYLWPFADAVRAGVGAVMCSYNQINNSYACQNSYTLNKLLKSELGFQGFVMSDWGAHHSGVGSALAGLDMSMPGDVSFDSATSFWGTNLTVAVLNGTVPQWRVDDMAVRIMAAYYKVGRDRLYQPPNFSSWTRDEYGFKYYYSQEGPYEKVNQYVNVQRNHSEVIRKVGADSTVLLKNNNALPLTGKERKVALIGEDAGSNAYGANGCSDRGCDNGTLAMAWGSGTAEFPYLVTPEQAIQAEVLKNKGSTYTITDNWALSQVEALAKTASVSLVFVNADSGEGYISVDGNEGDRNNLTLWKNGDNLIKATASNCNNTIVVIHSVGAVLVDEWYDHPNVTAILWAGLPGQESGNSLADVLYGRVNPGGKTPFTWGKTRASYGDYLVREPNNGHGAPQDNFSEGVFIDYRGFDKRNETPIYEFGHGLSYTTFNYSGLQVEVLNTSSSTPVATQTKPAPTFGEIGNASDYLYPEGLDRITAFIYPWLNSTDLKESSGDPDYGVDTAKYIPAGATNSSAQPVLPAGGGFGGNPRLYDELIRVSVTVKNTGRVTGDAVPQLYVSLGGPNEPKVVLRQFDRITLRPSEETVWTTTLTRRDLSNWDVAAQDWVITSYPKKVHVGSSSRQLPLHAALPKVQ
Put plainly: Michaelis-Menten kinetics with cellobiose, purified BGL1. Conditions: cellobiose as substrate, 50° C., pH 4.8, Hanes plot. Format: biochemical.
Procedure: In this work specific activity (U/mg) is defined as units per amount of total protein. […] The assay using 5 mM pNPG in NaCltrate buffer pH 4.8 was performed as previously described; enzyme samples were assayed at different concentrations in triple determination to ensure substrate saturation in the assay. […] Samples were assayed at different concentrations in triple determination to ensure substrate saturation in the assay.

The mark [12] stands for this setting: cellobiose, jointly for A. phoenicis, A. niger, A. carbonarius (Jager et al., 2001).
Setting [13] is: hydrolysis of cellobiose, 50° C., pH 4.0.

For the molecule `OC[C@H]1O[C@@H](O[C@H]2[C@H](O)[C@@H](O)C(O)O[C@@H]2CO)[C@H](O)[C@@H](O)[C@@H]1O` (some centres unmarked) [cellobiose], the Km in test [1] (setting [12]) is 2000 to 3000 µM; in test [2] (setting [12]) it was 2000 to 3000 µM; in test [3] (setting [12]), 2000 to 3000 µM; in test [5] (pH 4.8, Hanes-Wolf plot), 1090 µM; in test [6] (pH 4.8, Hanes-Wolf plot) it was 1060 µM; in test [7], 1000 µM. For the same molecule, the Km in test [9] was 1500 to 5600 µM; in test [10] (pH 4.8, Hanes-Wolf plot) it was 1690 µM. Moreover, the Vmax in [1] (setting [13]) is given as 38.8 U/mg; in test [2] (setting [13]) it was 15.4 U/mg; in test [3] (setting [13]), 27.3 U/mg; in test [4], 5.27 U/mg; in test [5] (pH 4.8, per total protein), 11.3 U/mg; in test [6] (pH 4.8, per total protein), 7.5 U/mg. The Vmax in test [8] is listed as 36.5 U/mg; in test [10] (pH 4.8, per total protein) it was 22.9 U/mg; in [11] it was 45 U/mg.
